In patent US9073966B2, “Inhibition of sweat malodor” (Firmenich SA, priority 2005, dated 2015):

System: production of (S)-3-methyl-3-sulfanylhexan-1-ol
Assay: Screening of potentially malodor-inhibiting compounds: micro-organisms incubated with the Cys-Gly precursor, VSC quantified by GC-AED (procedure of Example 6)
Format: cell-based
Settings: for inhibition of production of (S)-3-methyl-3-sulfanylhexan-1-ol: compounds added at 2 μmole
Procedure: Bacteria isolates were grown aerobically in the appropriate liquid media at 37° C. until OD600=1.0. Cells were harvested by centrifugation at 3000 g, 10 min, washed once with sterile 0.1M phosphate buffer (pH 6.0) and resuspended in fresh buffer. The concentration of individual strains incubated with the sweat precursor was between 1.10^+8 and 1.10^+10 cfu/mL. These freshly prepared bacteria (5 mL), were incubated with 0.1 mL of precursors (5 mg in 10 mL water), (or the sweat fraction, in Example 1 above), at 37° C. pH 6 in a close bottle. After the incubation time 1, 4 and 18 hours, 1 mL of ethyl acetate containing octanethiol and octadecane at 0.02 mg/mL was added and the fermentation broth was centrifuged at 16′000 g. The organic phase was directly injected on a GCSPB1 column coupled to MS and on a GCDMePeBetacdx chiral column coupled to AED detection. These experiments were repeated three times, two blanks were done with the micro-organism without the precursor and one with the precursor in the growing buffer only. No formation of sulfur compound was detected in blanks. The response factor for 1 μL injected of a solution 0.01 mg/mL of octanethiol was calculated in comparison of 1 μL injected of a racemic solution of 0.01 mg/mL of 3-methyl-3-sulphanylhexane-1-ol. The addition of both peaks areas (R/S) gave 280 (+/−5) and octanethiol 303 (+/−3) peaks surface over for injections so we used as an approximation a response factor of 1. Correlation factor for 1 μL injected on both column, were above 0.998 in the range of 1 to 10 ppm of (R/S)-3-methyl-3-sulfanylhexane-1-ol.
Micro-organisms suspended in fresh buffer (Example 5, detailed fermentation protocol) were split in two samples X and Y (negative control) of 5 mL.
[drawing 12] (obtained in Example 9) was added to sample X at a concentration of 2 μmol/L.
The samples comprising suspended micro-organisms and the compound to be screened were incubated at 37° C. for 30 min. […]
After the incubation times of 1, 4 and 18 hours, the increase of malodorous substance (compound 1 in FIG. 2) is briefly determined by sniffing of a trained person. […]
For the internal standard, the response factor for 1 μL injected of a solution 0.01 mg/mL of octanethiol was calculated in comparison of 1 μL injected of a racemic solution of 0.01 mg/mL of 3-methyl-3-sulphanylhexane-1-ol. […]
Stoichiometrically, 0.2 μmol of precursor produces 0.025 mg of VSC in 1 ml ethylacetate, if all precursor is metabolized. If less than […] of VSC is measured in sample X by the AED system, the screened compound, β-Cl-ala-gly, has the ability to reduce the development of malodor. […]

Row | SMILES | effect on formation of metabolites like compound II upon screening (compound (VII) with Z being NH) | production of (S)-3-methyl-3-sulfanylhexan-1-ol compared to the control (compound added at 2 μmole, procedure of Example 6) | inhibition of production of (S)-3-methyl-3-sulfanylhexan-1-ol (procedure of Example 6)
1 | Nc1cccc(C(=O)NCC(=O)O)c1 [Compound VII, N-[3-amino-benzoyl]glycine] | clear and confirmed increase of metabolites | increased production | –
2 | N[C@@H]1C=C(C(=O)NCC(=O)O)SC1 [IIIa, N-{[(4R)-4-amino-4,5-dihydro-2-thienyl]carbonyl}glycine] | – | – | 25%
3 | C#CC[C@H](N)C(=O)NCC(=O)O [Compound VI, N-[(2S)-2-amino-4-pentynoyl]glycine] | – | – | 75%
